The experiment has as its system soybean plants. In words: Field trial of soybean pre-harvest desiccation: visual defoliation after a single spray. In kind it is in vivo. The note with it: for Percentage of defoliation (raw data): single application at R7.2, 100 L/ha spray; for Percentage of defoliation (Abbot's formula): single application at R7.2, adjusted to untreated. As for the experimental part: Field trials were carried out to test the soybean desiccation efficacy of florpyrauxifen-benzyl at 5, 7.5, 10, 15 and 20 g a.i./ha. Soybean plants were sprayed at the R7.2 soybean growth stage.
[…] Herbicides were diluted in water and a single application for each rate (backpack sprayer) was performed employing 100 L/ha of spray solution. The percentage of visual defoliation was assessed at 3, 7 and 10 days after spray application. The significance of treatment effects was evaluated with F-approximate test (α=0.05) and least square means from different treatments were compared with Tukey's test, after adjusting the % defoliation using Abbott's formula (Abbott, W. S., 1925. A method of computing the effectiveness of an insecticide. J. Econ. Entomol. 18:265-267).

Setting [1] is: 3 DAA, 370 g ai/ha, untreated 74.4.
Setting [2] is: 10 DAA, 370 g ai/ha, untreated 89.8.

Regarding `CP(=O)(O)CCC(N)C(=O)O` (centres unmarked) [Ammonium glufosinate, ammonium-glufosinate], the “Percentage of defoliation (raw data)” value under setting [1] was found to be 84.9%; the “Percentage of defoliation (raw data)” value (7 DAA, 370 g ai/ha) is 93.9%; the “Percentage of defoliation (raw data)” value under setting [2] was 98.1%. Moreover, the “Percentage of defoliation (Abbot's formula)” value (“Percentage … (Abbot's formula)” below) is reported as 16.4% (3 DAA, 370 g ai/ha); 13.9% (7 DAA, 370 g ai/ha); 10.8% (10 DAA, 370 g ai/ha).

As for `c1cc[n+]2c(c1)-c1cccc[n+]1CC2` [Diquat, diquat], the “Percentage of defoliation (raw data)” value runs as follows: under setting [1], 95.7%; (7 DAA, 370 g ai/ha) 98.9%; under setting [2], 99.8%. In addition, the “Percentage … (Abbot's formula)” value was 31.7% (3 DAA, 370 g ai/ha); 20.5% (7 DAA, 370 g ai/ha); 12.9% (10 DAA, 370 g ai/ha).

As to `COc1c(Cl)ccc(-c2nc(C(=O)OCc3ccccc3)c(Cl)c(N)c2F)c1F` [Florpyrauxifen-benzyl, florpyrauxifen-benzyl], the “Percentage of defoliation (raw data)” value by setting is: (3 DAA, 5 g ai/ha, untreated 74.4) 78.8%; (3 DAA, 7.5 g ai/ha, untreated 74.4) 80.8%; (3 DAA, 10 g ai/ha, untreated 74.4) 81.3%; (3 DAA, 15 g ai/ha, untreated 74.4) 82.4%; (3 DAA, 20 g ai/ha, untreated 74.4) 84.3%; (7 DAA, 5 g ai/ha) 89.3%. In addition, the “Percentage of defoliation (raw data)” value runs as follows: (7 DAA, 7.5 g ai/ha) 90.8%; (7 DAA, 10 g ai/ha) 91.4%; (7 DAA, 15 g ai/ha) 93.0%; (7 DAA, 20 g ai/ha) 94.5%; (10 DAA, 5 g ai/ha, untreated 89.8) 97.1%; (10 DAA, 7.5 g ai/ha, untreated 89.8) 97.9%. Besides, the “Percentage of defoliation (raw data)” value was found to be 97.9% (10 DAA, 10 g ai/ha, untreated 89.8); 98.6% (10 DAA, 15 g ai/ha, untreated 89.8); 99.1% (10 DAA, 20 g ai/ha, untreated 89.8). Moreover, the “Percentage … (Abbot's formula)” value by setting is: (3 DAA, 5 g ai/ha) 7.4%; (3 DAA, 7.5 g ai/ha) 10.0%; (3 DAA, 10 g ai/ha) 10.7%; (3 DAA, 15 g ai/ha) 12.3%; (3 DAA, 20 g ai/ha) 15.3%; (7 DAA, 5 g ai/ha) 7.8%. The “Percentage … (Abbot's formula)” value by setting is: (7 DAA, 7.5 g ai/ha) 9.6%; (7 DAA, 10 g ai/ha) 10.4%; (7 DAA, 15 g ai/ha) 12.7%; (7 DAA, 20 g ai/ha) 14.7%; (10 DAA, 5 g ai/ha) 9.5%; (10 DAA, 7.5 g ai/ha) 10.4%. Further, the “Percentage … (Abbot's formula)” value (10 DAA, 10 g ai/ha) is 10.5%; the “Percentage … (Abbot's formula)” value (10 DAA, 15 g ai/ha) was 11.3%; the “Percentage … (Abbot's formula)” value (10 DAA, 20 g ai/ha) is reported as 11.9%. Besides, the “percentage of defoliation compared to untreated plants, versus standards” value (7 DAA, rate not restated (15 and 20 g ai/ha in preceding sentence), Tukey's test) was “statistically equivalent to both ammonium-glufosinate and diquat”. Also, the “percentage of defoliation compared to untreated plants, versus standard” value (15 and 20 g ai/ha, 3 DAA, F-approximate test (α=0.05), Tukey's test) is recorded as “statistically equivalent to ammonium-glufosinate”.

Values taken from patent US20260314598A1, “THE USE OF FLORPYRAUXIFEN-BENZYL AS A SOYBEAN HARVEST AID” (CORTEVA AGRISCIENCE LLC, priority 2022, published 2026).
